This note sets out measurements from ChEMBL document CHEMBL1133819, “Structure-based design of caspase-1 inhibitor containing a diphenyl ether sulfonamide” (Bioorg Med Chem Lett, 2001).

Structures are written as SMILES.

Test [1] deals with T1, Caspase-1 (Homo sapiens, UniProt P29466).
T1 sequence (P29466 whole entry): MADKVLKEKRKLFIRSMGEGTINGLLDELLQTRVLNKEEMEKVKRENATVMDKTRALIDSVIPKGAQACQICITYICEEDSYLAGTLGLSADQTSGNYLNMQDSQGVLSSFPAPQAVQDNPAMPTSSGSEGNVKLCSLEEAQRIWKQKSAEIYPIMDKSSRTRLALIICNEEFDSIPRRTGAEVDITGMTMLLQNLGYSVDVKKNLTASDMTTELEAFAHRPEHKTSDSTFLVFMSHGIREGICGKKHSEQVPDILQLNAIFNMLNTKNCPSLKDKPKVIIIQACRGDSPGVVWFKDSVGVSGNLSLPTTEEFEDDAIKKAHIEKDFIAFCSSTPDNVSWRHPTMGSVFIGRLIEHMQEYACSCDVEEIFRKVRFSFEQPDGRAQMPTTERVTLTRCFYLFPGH
Description: Inhibitory concentration against caspase-1 was determined.

Test [2] concerns the target T1, Caspase-1. Description: Binding affinity towards caspase-1 was determined.

A word on the IC50: it is the concentration needed to halve the response being measured. Higher therefore signals weaker potency in that assay. One may read the Ki as the dissociation constant of the complex between target and ligand, obtained from inhibition or displacement. The low end stands for a stronger hold on the target, the high end for a looser hold on the target. In the case of `CC(C)c1cccc(Oc2ccccc2S(=O)(=O)N[C@H](C=O)C(=O)O)c1`, at Caspase-1 [1], the IC50 was found to be 3700 nM. On Caspase-1 [2], this compound came in with a Ki of 410 nM.
On Caspase-1 [1], `Cc1cc(Oc2ccccc2S(=O)(=O)N[C@H](C=O)C(=O)O)cc(C)c1C` gave an IC50 of 7800 nM. At Caspase-1 [2], the affinity, expressed as Ki, was 450 nM.
As for `CC(C)c1ccc(Oc2ccccc2S(=O)(=O)N[C@H](C=O)C(=O)O)cc1`, the IC50 against Caspase-1 [1] turned out to be 5300 nM. The same compound returned a Ki at Caspase-1 [2] of 620 nM.
For `O=C[C@@H](NS(=O)(=O)c1ccccc1Oc1ccccc1)C(=O)O` the same measures were 24000 nM and 24000 nM.
`CCC(C)c1ccc(Oc2ccccc2S(=O)(=O)N[C@H](C=O)C(=O)O)cc1C` (some centres undefined) yielded an IC50 at Caspase-1 [1] of 1000 nM. For the same compound, at Caspase-1 [2], the Ki came out at 100 nM.
`O=C[C@@H](NS(=O)(=O)c1ccccc1Oc1ccc(-c2ccccc2)cc1)C(=O)O` displayed an IC50 against Caspase-1 [1] of 4400 nM. At Caspase-1 [2], this compound showed a Ki of 290 nM.
Taken in the same sequence, the figures for `Cc1ccccc1Oc1ccccc1S(=O)(=O)N[C@H](C=O)C(=O)O` were 14000 nM and 3000 nM.
`Cc1ccc(Oc2ccccc2S(=O)(=O)N[C@H](C=O)C(=O)O)cc1`: inhibition on Caspase-1 [1] was half-maximal at 9000 nM (IC50). This compound registered a Ki on Caspase-1 [2] of 1100 nM.
`CCC(CC)c1ccc(Oc2ccccc2S(=O)(=O)N[C@H](C=O)C(=O)O)cc1`: on Caspase-1 [1], the IC50 is 3500 nM. The Ki on Caspase-1 [2] turned out to be 440 nM.
For the compound `CCC(C)c1ccc(Oc2ccccc2S(=O)(=O)N[C@H](C=O)C(=O)O)cc1` (some centres undefined), half-maximal inhibition against Caspase-1 [1] (IC50) was put at 2200 nM. This compound also returned a Ki on Caspase-1 [2] of 490 nM.
Regarding `O=C[C@@H](NS(=O)(=O)c1ccccc1Oc1ccc(C2CCCC2)cc1)C(=O)O`, on Caspase-1 [1], the IC50 is 4800 nM. Further, at Caspase-1 [2], the inhibitory constant (Ki) came out at 880 nM.
Taken in the same sequence, the figures for `O=C[C@@H](NS(=O)(=O)c1ccccc1-c1ccccc1)C(=O)O` were 20000 nM and 1600 nM.
`O=C[C@@H](NS(=O)(=O)c1ccccc1Oc1ccc(C2CCCCC2)cc1)C(=O)O` returned an IC50 on Caspase-1 [1] of 4300 nM. This compound registered a Ki on Caspase-1 [2] of 900 nM.
In the case of `O=C[C@@H](NS(=O)(=O)c1ccccc1Oc1ccc(-c2ccc(C(=O)O)cc2)cc1)C(=O)O`, the IC50 against Caspase-1 [1] turned out to be 58000 nM. Moreover, the Ki on Caspase-1 [2] stood at 4200 nM.
At Caspase-1 [1], `Cc1cccc(Oc2ccccc2S(=O)(=O)N[C@H](C=O)C(=O)O)c1` gave an IC50 of 11000 nM. The compound further displayed a Ki at Caspase-1 [2] of 430 nM.
For `Cc1cc(Oc2ccccc2S(=O)(=O)N[C@H](C=O)C(=O)O)ccc1C(C)C` the same measures were 1000 nM and 110 nM.
For the compound `Cc1cccc(Oc2ccccc2S(=O)(=O)N[C@H](C=O)C(=O)O)c1C`, it took 13000 nM to reach half-maximal inhibition against Caspase-1 [1] (IC50). Moreover, at Caspase-1 [2], the Ki came out at 1000 nM.
